How the values were obtained:
Assay in all cases: radiometric filter-binding kinase assay
PIM3 (human) = PIM3 (human) (UniProt Q86V86)
SRPK1 (human) = SRPK1 (human) (UniProt Q96SB4)
YES1 (human) = YES1 (human) (UniProt P07947)
BRSK2 (human) = BRSK2 (human) (UniProt Q8IWQ3)
IGF1R (human) = IGF1R (human) (UniProt P08069)
MARK3 (human) = MARK3 (human) (UniProt P27448)
FGFR1 (human) = FGFR1 (human) (UniProt P11362)
[1] = test system: SGK1 (human), O00141 [S422D]
GCK (human) = GCK (human) (UniProt Q12851)
JAK2 JH1 JH2 (human) = JAK2 JH1 JH2 (human) (UniProt O60674)
Chain of JAK2 JH1 JH2 (human) (O60674 whole entry, looked up): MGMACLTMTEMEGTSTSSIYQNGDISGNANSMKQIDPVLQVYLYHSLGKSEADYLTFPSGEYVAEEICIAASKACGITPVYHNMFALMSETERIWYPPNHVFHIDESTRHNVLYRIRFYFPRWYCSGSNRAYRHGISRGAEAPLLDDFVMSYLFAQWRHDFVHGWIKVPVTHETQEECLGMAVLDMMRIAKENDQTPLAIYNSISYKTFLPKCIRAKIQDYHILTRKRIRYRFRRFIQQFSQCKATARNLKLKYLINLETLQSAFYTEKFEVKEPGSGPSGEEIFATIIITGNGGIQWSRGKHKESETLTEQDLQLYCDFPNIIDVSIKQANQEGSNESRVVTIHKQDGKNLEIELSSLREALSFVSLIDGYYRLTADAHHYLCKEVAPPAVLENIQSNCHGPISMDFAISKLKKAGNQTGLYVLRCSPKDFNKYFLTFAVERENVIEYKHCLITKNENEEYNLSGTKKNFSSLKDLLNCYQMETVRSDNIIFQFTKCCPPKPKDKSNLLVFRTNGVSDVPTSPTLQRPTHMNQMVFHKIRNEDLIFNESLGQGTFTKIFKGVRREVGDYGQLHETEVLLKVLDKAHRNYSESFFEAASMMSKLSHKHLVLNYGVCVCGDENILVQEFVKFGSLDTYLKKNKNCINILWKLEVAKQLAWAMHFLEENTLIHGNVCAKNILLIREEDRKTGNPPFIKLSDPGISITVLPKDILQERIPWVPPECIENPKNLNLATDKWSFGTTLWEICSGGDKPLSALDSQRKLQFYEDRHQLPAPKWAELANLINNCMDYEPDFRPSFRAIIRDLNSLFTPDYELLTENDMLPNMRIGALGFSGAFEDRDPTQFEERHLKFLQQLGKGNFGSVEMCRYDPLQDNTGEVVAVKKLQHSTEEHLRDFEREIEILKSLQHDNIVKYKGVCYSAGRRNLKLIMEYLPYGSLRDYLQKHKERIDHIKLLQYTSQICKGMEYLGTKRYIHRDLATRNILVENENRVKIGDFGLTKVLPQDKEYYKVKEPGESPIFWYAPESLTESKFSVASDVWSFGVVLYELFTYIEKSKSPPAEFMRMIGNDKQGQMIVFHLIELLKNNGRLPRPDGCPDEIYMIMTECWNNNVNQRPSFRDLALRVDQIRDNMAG

TAOK1 (human) = TAOK1 (human) (UniProt Q7L7X3)
TBK1 (human) = TBK1 (human) (UniProt Q9UHD2)
MAPKAPK5 (human) = MAPKAPK5 (human) (UniProt Q8IW41)
MAPK13 (human) = MAPK13 (human) (UniProt O15264)
MAPK10 (human) = MAPK10 (human) (UniProt P53779)
CLK2 (human) = CLK2 (human) (UniProt P49760)
Chain of CLK2 (human) (P49760 whole entry, looked up): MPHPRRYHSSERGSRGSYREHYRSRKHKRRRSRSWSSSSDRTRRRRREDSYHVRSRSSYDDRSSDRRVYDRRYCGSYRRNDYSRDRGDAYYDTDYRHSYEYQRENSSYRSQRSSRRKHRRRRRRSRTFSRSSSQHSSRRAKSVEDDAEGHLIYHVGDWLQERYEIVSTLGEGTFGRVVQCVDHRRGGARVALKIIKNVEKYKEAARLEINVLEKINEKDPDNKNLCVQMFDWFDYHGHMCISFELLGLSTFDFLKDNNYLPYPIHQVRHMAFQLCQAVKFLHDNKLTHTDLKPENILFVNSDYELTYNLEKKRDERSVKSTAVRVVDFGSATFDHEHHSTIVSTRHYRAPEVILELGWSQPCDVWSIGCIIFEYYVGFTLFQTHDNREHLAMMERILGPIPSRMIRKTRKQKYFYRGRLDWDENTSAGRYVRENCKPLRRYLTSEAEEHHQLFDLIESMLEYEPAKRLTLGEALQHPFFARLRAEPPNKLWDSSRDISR

CAMKK2 (human) = CAMKK2 (human) (UniProt Q96RR4)
MINK1 (human) = MINK1 (human) (UniProt Q8N4C8)
LCK (mouse) = conditions: accession and sequence are those of the human protein
PHKG1 (human) = PHKG1 (human) (UniProt Q16816)
EPHB2 (human) = EPHB2 (human) (UniProt P29323)
HIPK1 (human) = HIPK1 (human) (UniProt Q86Z02)
Chain of HIPK1 (human) (Q86Z02 whole entry, looked up): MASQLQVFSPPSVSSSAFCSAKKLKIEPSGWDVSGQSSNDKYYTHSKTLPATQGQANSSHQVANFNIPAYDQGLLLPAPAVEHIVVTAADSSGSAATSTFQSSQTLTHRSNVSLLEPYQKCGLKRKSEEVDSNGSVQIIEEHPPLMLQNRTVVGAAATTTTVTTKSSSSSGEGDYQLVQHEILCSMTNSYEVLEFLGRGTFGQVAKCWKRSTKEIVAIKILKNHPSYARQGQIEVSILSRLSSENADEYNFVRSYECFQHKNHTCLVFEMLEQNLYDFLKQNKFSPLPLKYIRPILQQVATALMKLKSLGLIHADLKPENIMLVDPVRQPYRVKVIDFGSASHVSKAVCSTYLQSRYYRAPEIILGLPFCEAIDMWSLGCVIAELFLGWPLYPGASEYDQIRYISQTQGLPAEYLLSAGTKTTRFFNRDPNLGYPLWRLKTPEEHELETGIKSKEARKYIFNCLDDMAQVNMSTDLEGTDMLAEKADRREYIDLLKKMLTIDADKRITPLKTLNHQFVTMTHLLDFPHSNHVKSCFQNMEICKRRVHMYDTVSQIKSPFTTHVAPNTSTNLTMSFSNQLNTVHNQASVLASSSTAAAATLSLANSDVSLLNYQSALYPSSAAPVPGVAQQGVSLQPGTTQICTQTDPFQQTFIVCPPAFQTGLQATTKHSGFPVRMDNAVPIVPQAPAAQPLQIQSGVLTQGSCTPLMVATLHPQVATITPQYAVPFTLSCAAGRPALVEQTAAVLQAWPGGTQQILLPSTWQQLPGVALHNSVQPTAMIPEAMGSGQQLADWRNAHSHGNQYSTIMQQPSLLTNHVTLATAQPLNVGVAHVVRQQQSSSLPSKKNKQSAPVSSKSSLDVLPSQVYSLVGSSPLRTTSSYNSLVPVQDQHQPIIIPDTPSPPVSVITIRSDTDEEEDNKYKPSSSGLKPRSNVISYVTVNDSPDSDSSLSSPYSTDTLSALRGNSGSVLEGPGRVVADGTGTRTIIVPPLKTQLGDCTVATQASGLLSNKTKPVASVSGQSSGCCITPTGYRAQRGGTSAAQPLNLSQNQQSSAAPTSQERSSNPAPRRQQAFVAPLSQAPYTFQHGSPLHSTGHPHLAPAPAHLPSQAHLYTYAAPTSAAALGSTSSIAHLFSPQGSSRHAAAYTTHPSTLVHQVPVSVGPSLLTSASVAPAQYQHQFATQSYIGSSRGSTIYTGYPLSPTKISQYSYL

[2] = test system: PAK2 (human), Q13177 [T402E]
DAPK1 (human) = DAPK1 (human) (UniProt P53355)
ROCK2 (rat) = conditions: accession and sequence are those of the human protein
DYRK3 (human) = DYRK3 (human) (UniProt O43781)
Chain of DYRK3 (human) (O43781 whole entry, looked up): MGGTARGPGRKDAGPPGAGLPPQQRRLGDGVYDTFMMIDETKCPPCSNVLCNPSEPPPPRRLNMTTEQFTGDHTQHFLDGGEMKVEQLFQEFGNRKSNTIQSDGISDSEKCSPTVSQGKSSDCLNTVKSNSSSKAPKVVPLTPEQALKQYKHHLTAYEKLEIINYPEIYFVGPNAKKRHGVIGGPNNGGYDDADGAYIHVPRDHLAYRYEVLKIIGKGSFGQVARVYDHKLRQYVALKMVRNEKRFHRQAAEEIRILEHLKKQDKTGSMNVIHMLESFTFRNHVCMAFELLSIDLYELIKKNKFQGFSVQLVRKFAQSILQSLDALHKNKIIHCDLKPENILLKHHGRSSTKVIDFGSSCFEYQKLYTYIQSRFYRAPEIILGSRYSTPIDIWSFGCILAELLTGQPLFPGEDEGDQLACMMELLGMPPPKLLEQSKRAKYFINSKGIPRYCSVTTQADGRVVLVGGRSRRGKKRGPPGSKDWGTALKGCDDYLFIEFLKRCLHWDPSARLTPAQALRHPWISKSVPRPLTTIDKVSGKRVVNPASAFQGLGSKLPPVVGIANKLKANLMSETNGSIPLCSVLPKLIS

HIPK2 (human) = HIPK2 (human) (UniProt Q9H2X6)
CHEK1 (human) = CHEK1 (human) (UniProt O14757)
CSNK2A1 (human) = CSNK2A1 (human) (UniProt P68400)
MAPK11 (human) = MAPK11 (human) (UniProt Q15759)
MKNK1 (human) = MKNK1 (human) (UniProt Q9BUB5)
MAPK8 (human) = MAPK8 (human) (UniProt P45983)
AURKB (human) = AURKB (human) (UniProt Q96GD4)
Chain of AURKB (human) (Q96GD4 whole entry, looked up): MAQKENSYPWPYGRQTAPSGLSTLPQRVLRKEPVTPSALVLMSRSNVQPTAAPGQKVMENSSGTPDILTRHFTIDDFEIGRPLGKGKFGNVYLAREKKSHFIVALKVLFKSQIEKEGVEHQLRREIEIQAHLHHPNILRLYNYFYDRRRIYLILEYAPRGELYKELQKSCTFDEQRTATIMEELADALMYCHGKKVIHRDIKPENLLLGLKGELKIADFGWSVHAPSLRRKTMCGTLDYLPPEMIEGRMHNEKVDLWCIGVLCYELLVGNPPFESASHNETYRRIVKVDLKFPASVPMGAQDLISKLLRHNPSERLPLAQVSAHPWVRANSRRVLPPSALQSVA

CaMK1 (human) = CaMK1 (human) (UniProt Q14012)
Chain of CaMK1 (human) (Q14012 whole entry, looked up): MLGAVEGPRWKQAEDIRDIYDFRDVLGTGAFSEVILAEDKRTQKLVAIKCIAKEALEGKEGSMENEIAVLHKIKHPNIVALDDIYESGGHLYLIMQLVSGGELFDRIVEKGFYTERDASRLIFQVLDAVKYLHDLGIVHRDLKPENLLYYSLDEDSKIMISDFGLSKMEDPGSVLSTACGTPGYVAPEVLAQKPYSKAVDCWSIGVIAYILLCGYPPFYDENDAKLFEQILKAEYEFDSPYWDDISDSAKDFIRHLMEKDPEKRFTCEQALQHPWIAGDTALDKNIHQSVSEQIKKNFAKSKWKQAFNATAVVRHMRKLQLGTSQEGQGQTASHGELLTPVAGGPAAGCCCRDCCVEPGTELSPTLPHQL

STK3 (human) = STK3 (human) (UniProt Q13188)
DYRK1A (human) = DYRK1A (human) (UniProt Q13627)

Chain of MARK3 (human) (P27448 whole entry, looked up): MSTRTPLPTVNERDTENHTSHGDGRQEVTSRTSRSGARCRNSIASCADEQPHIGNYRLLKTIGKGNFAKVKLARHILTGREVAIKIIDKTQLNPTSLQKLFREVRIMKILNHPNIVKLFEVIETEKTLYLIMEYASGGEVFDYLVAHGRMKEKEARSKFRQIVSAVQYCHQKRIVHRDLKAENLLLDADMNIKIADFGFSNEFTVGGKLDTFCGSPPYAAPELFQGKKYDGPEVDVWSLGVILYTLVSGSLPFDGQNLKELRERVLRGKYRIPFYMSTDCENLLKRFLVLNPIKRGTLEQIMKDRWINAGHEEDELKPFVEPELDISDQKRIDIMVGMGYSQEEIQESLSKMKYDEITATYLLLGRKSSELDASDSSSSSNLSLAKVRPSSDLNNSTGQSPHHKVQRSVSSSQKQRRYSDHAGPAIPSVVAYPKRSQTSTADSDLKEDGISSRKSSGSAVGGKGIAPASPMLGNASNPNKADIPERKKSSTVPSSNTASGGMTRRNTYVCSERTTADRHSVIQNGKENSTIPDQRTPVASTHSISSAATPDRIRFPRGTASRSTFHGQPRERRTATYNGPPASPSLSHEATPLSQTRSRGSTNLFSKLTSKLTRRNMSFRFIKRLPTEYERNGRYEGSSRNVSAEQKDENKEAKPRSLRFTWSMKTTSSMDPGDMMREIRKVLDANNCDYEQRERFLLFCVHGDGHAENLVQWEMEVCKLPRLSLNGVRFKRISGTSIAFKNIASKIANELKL

With `FC(F)(F)c1ccc(-c2ccc(Oc3cncc4sc(-c5nn[nH]n5)cc34)cc2)cc1` the residual activity (PIM3 (human); compound 1.0 µM) was 74%, the residual activity (PIM3 (human); compound 10.0 µM) was 31% and the residual activity (SRPK1 (human); compound 1.0 µM) was 112%. The residual activity (SRPK1 (human); compound 10.0 µM) was 105%, the residual activity (YES1 (human); compound 1.0 µM) was 100% and the residual activity (YES1 (human); compound 10.0 µM) was 87%. For the same compound, the residual activity (BRSK2 (human); compound 1.0 µM) was 115%, the residual activity (BRSK2 (human); compound 10.0 µM) was 105% and the residual activity (IGF1R (human); compound 1.0 µM) was 74%. It also gave a residual activity (IGF1R (human); compound 10.0 µM) of 74%, a residual activity (MARK3 (human); compound 1.0 µM) of 100% and a residual activity (MARK3 (human); compound 10.0 µM) of 51%. It also gave a residual activity (FGFR1 (human); compound 1.0 µM) of 102%, a residual activity (FGFR1 (human); compound 10.0 µM) of 76% and a residual activity ([1]; compound 1.0 µM) of 93%. It also gave a residual activity ([1]; compound 10.0 µM) of 39%, a residual activity (GCK (human); compound 1.0 µM) of 68% and a residual activity (GCK (human); compound 10.0 µM) of 17%. The residual activity (JAK2 JH1 JH2 (human); compound 1.0 µM) was 99%, the residual activity (JAK2 JH1 JH2 (human); compound 10.0 µM) was 46% and the residual activity (TAOK1 (human); compound 1.0 µM) was 65%. For the same compound, the residual activity (TAOK1 (human); compound 10.0 µM) was 30%, the residual activity (TBK1 (human); compound 1.0 µM) was 109% and the residual activity (TBK1 (human); compound 10.0 µM) was 63%. It also gave a residual activity (MAPKAPK5 (human); compound 1.0 µM) of 110%, a residual activity (MAPKAPK5 (human); compound 10.0 µM) of 67% and a residual activity (MAPK13 (human); compound 1.0 µM) of 113%. It also gave a residual activity (MAPK13 (human); compound 10.0 µM) of 77%, a residual activity (MAPK10 (human); compound 1.0 µM) of 85% and a residual activity (MAPK10 (human); compound 10.0 µM) of 96%. The residual activity (CLK2 (human); compound 1.0 µM) was 73%, the residual activity (CLK2 (human); compound 10.0 µM) was 14% and the residual activity (CAMKK2 (human); compound 1.0 µM) was 105%. The residual activity (CAMKK2 (human); compound 10.0 µM) was 44%, the residual activity (MINK1 (human); compound 1.0 µM) was 96% and the residual activity (MINK1 (human); compound 10.0 µM) was 87%. The residual activity (LCK (mouse); compound 1.0 µM) was 100%, the residual activity (LCK (mouse); compound 10.0 µM) was 98% and the residual activity (PHKG1 (human); compound 1.0 µM) was 102%. For the same compound, the residual activity (PHKG1 (human); compound 10.0 µM) was 82%, the residual activity (EPHB2 (human); compound 1.0 µM) was 111% and the residual activity (EPHB2 (human); compound 10.0 µM) was 120%. For the same compound, the residual activity (HIPK1 (human); compound 1.0 µM) was 65%, the residual activity (HIPK1 (human); compound 10.0 µM) was 12% and the residual activity ([2]; compound 1.0 µM) was 109%. The residual activity ([2]; compound 10.0 µM) was 101%, the residual activity (DAPK1 (human); compound 1.0 µM) was 47% and the residual activity (DAPK1 (human); compound 10.0 µM) was 17%. For the same compound, the residual activity (ROCK2 (rat); compound 1.0 µM) was 90%, the residual activity (ROCK2 (rat); compound 10.0 µM) was 93% and the residual activity (DYRK3 (human); compound 1.0 µM) was 18%. It also gave a residual activity (DYRK3 (human); compound 10.0 µM) of 3%, a residual activity (HIPK2 (human); compound 1.0 µM) of 22% and a residual activity (HIPK2 (human); compound 10.0 µM) of 11%. It also gave a residual activity (CHEK1 (human); compound 1.0 µM) of 118%, a residual activity (CHEK1 (human); compound 10.0 µM) of 65% and a residual activity (CSNK2A1 (human); compound 1.0 µM) of 20%. The residual activity (CSNK2A1 (human); compound 10.0 µM) was 4%, the residual activity (MAPK11 (human); compound 1.0 µM) was 102% and the residual activity (MAPK11 (human); compound 10.0 µM) was 100%. For the same compound, the residual activity (MKNK1 (human); compound 1.0 µM) was 89%, the residual activity (MKNK1 (human); compound 10.0 µM) was 55% and the residual activity (MAPK8 (human); compound 1.0 µM) was 103%. It also gave a residual activity (MAPK8 (human); compound 10.0 µM) of 101%, a residual activity (AURKB (human); compound 1.0 µM) of 81% and a residual activity (AURKB (human); compound 10.0 µM) of 40%. It also gave a residual activity (CaMK1 (human); compound 1.0 µM) of 93%, a residual activity (CaMK1 (human); compound 10.0 µM) of 73% and a residual activity (STK3 (human); compound 1.0 µM) of 93%. It also gave a residual activity (STK3 (human); compound 10.0 µM) of 76%, a residual activity (DYRK1A (human); compound 1.0 µM) of 27% and a residual activity (DYRK1A (human); compound 10.0 µM) of 5%.
In the case of `NC(=O)c1c(NC(=O)C2CC2)sc2c1CCCC2`, the residual activity (PIM3 (human); compound 1.0 µM) is reported as 111%, the residual activity (PIM3 (human); compound 10.0 µM) is reported as 68% and the residual activity (SRPK1 (human); compound 1.0 µM) is reported as 97%. For the same compound, the residual activity (SRPK1 (human); compound 10.0 µM) was 93%, the residual activity (YES1 (human); compound 1.0 µM) was 92% and the residual activity (YES1 (human); compound 10.0 µM) was 79%. For the same compound, the residual activity (BRSK2 (human); compound 1.0 µM) was 99%, the residual activity (BRSK2 (human); compound 10.0 µM) was 73% and the residual activity (IGF1R (human); compound 1.0 µM) was 86%. It also gave a residual activity (IGF1R (human); compound 10.0 µM) of 79%, a residual activity (MARK3 (human); compound 1.0 µM) of 90% and a residual activity (MARK3 (human); compound 10.0 µM) of 69%. For the same compound, the residual activity (FGFR1 (human); compound 1.0 µM) was 105%, the residual activity (FGFR1 (human); compound 10.0 µM) was 46% and the residual activity ([1]; compound 1.0 µM) was 109%. The residual activity ([1]; compound 10.0 µM) was 107%, the residual activity (GCK (human); compound 1.0 µM) was 69% and the residual activity (GCK (human); compound 10.0 µM) was 17%. It also gave a residual activity (JAK2 JH1 JH2 (human); compound 1.0 µM) of 104%, a residual activity (JAK2 JH1 JH2 (human); compound 10.0 µM) of 60% and a residual activity (TAOK1 (human); compound 1.0 µM) of 87%. For the same compound, the residual activity (TAOK1 (human); compound 10.0 µM) was 69%, the residual activity (TBK1 (human); compound 1.0 µM) was 99% and the residual activity (TBK1 (human); compound 10.0 µM) was 107%. For the same compound, the residual activity (MAPKAPK5 (human); compound 1.0 µM) was 96%, the residual activity (MAPKAPK5 (human); compound 10.0 µM) was 62% and the residual activity (MAPK13 (human); compound 1.0 µM) was 116%. The residual activity (MAPK13 (human); compound 10.0 µM) was 97%, the residual activity (MAPK10 (human); compound 1.0 µM) was 94% and the residual activity (MAPK10 (human); compound 10.0 µM) was 84%. The residual activity (CLK2 (human); compound 1.0 µM) was 89%, the residual activity (CLK2 (human); compound 10.0 µM) was 49% and the residual activity (CAMKK2 (human); compound 1.0 µM) was 106%. For the same compound, the residual activity (CAMKK2 (human); compound 10.0 µM) was 48%, the residual activity (MINK1 (human); compound 1.0 µM) was 80% and the residual activity (MINK1 (human); compound 10.0 µM) was 37%. For the same compound, the residual activity (LCK (mouse); compound 1.0 µM) was 98%, the residual activity (LCK (mouse); compound 10.0 µM) was 77% and the residual activity (PHKG1 (human); compound 1.0 µM) was 108%. The residual activity (PHKG1 (human); compound 10.0 µM) was 62%, the residual activity (EPHB2 (human); compound 1.0 µM) was 104% and the residual activity (EPHB2 (human); compound 10.0 µM) was 62%. For the same compound, the residual activity (HIPK1 (human); compound 1.0 µM) was 100%, the residual activity (HIPK1 (human); compound 10.0 µM) was 87% and the residual activity ([2]; compound 1.0 µM) was 92%. The residual activity ([2]; compound 10.0 µM) was 96%, the residual activity (DAPK1 (human); compound 1.0 µM) was 102% and the residual activity (DAPK1 (human); compound 10.0 µM) was 86%. The residual activity (ROCK2 (rat); compound 1.0 µM) was 95%, the residual activity (ROCK2 (rat); compound 10.0 µM) was 91% and the residual activity (DYRK3 (human); compound 1.0 µM) was 111%. For the same compound, the residual activity (DYRK3 (human); compound 10.0 µM) was 109%, the residual activity (HIPK2 (human); compound 1.0 µM) was 94% and the residual activity (HIPK2 (human); compound 10.0 µM) was 52%. It also gave a residual activity (CHEK1 (human); compound 1.0 µM) of 95%, a residual activity (CHEK1 (human); compound 10.0 µM) of 84% and a residual activity (CSNK2A1 (human); compound 10.0 µM) of 106%. It also gave a residual activity (MAPK11 (human); compound 1.0 µM) of 99%, a residual activity (MAPK11 (human); compound 10.0 µM) of 98% and a residual activity (MKNK1 (human); compound 1.0 µM) of 97%. For the same compound, the residual activity (MKNK1 (human); compound 10.0 µM) was 77%, the residual activity (MAPK8 (human); compound 1.0 µM) was 97% and the residual activity (MAPK8 (human); compound 10.0 µM) was 102%. It also gave a residual activity (AURKB (human); compound 1.0 µM) of 79%, a residual activity (AURKB (human); compound 10.0 µM) of 62% and a residual activity (CaMK1 (human); compound 1.0 µM) of 98%. The residual activity (CaMK1 (human); compound 10.0 µM) was 70%, the residual activity (STK3 (human); compound 1.0 µM) was 90% and the residual activity (STK3 (human); compound 10.0 µM) was 53%. For the same compound, the residual activity (DYRK1A (human); compound 1.0 µM) was 85% and the residual activity (DYRK1A (human); compound 10.0 µM) was 48%.

From the kinase profiling compilation of Christmann-Franck et al. (2016)
